Source: paper PMC6768916, “Population pharmacokinetics of fedratinib in patients with myelofibrosis, polycythemia vera, and essential thrombocythemia” (Cancer Chemotherapy and Pharmacology, 2019)
Entries after “also recorded” stand apart in the source; their conditions may differ. Read-outs that look alike come from different tables or passages of the source.

What was measured:
[1] = population pharmacokinetic model in patients with MF, PV or ET; assay type: in vivo, human
Procedure: The population PK analysis utilized data from one phase 1 study (TED12037 [NCT00631462]), four phase 2 studies (ARD11936 [NCT01420770], ARD12042 [NCT01420783], ARD12181 [NCT01523171], ARD12888 [NCT01692366]) and one phase 3 study (EFC12153 [NCT01437787]). Study design, dosing regimen, and PK sampling information are presented in Supplementary Table 1. These studies were conducted in accordance with the Declaration of Helsinki and the International Council for Harmonisation Guideline for Good Clinical Practice (ICH E6). Written informed consent was obtained from all subjects.
Concentrations of fedratinib in plasma were determined using a validated high-performance liquid chromatography with tandem mass spectrometric detection, with good accuracy (− 6.75–8.8%) and precision (4.84–13.11%). The lower limit of quantification was 1 ng/mL, and the calibration range was 1–1000 ng/mL.
Population PK analyses were conducted using a nonlinear mixed-effect modeling approach, as implemented in the NONMEM software version 7.3.0 (ICON Development Solutions, Ellicott City, MD). Plotting of NONMEM outputs was conducted using the R software (version 3.4.1) and RStudio (version 1.1.456, Boston, MA).
In the development of the structural model, one- to three-compartment models with first-order elimination and different absorption models including first-order absorption with and without lag time, zero-order absorption and transit compartment model were tested to fit the plasma concentration-time data. First-order conditional estimation (FOCE) with interaction method was used for parameter estimation, with natural logarithm-transformed plasma fedratinib concentration data. The inter-subject variability was modeled assuming a log-normal distribution. Residual variability was modeled using an additive model. The model selection was based on the objective function value (OFV) using the log-likelihood ratio test, the goodness of fit criteria and visual predictive check (VPC). Covariate model building was carried out using a stepwise procedure, with significance levels set to 0.01 and 0.001 for the forward inclusion and backward elimination steps, respectively. Missing baseline covariates were imputed as the median value in the study population.
Stability of the final PK parameter estimates and the 95% confidence interval (CI) for the parameters were evaluated using the nonparametric bootstrap approach. With this approach, 500 datasets of size equal to the original dataset were generated by random resampling with replacement from the original dataset. The final model was fit to each of the 500 bootstrap datasets and all the model parameters were estimated for each dataset. The median and nonparametric 95% CI (2.5–97.5 percentiles) of the 500 estimates were calculated for each parameter. The ability of the final population PK model to describe the observed concentration data was evaluated by simulating 200 datasets having the same doses, dosing schedules and sampling times as the original dataset and by performing prediction-corrected VPC [18]. The 5th, 50th and 95th prediction percentiles of the fedratinib concentrations at each binned time point were computed for each simulated trial. Thereafter, the nonparametric 90% CI of the 5th, 50th and 95th prediction percentiles at each binned time point were calculated for the 200 simulated trials.

wild-type JAK2 = test system: wild-type JAK2; design: method as in PMID 18394554; settings: cited from earlier work
[2] = test system: activated mutant JAK2 V617F; design: method as in PMID 18394554; settings: cited from earlier work
FLT3 = test system: FLT3; design: method as in PMID 18394554; settings: cited from earlier work
[3] = test system: JAK2 V617F-driven aberrant human PV progenitor erythroid differentiation; design: method as in PMID 18394555; settings: cited from earlier work
[4] = cited from earlier work
[5] = human, in vivo; cited from earlier work
[6] = final model, inter-individual variability

increase in exposure (steady-state AUC) with moderate renal impairment vs normal renal function ([1]; 30 ≤ CLcr < 60 mL/min vs CLcr ≥ 90 mL/min): 37% | increase in exposure (steady-state AUC) with mild renal impairment vs normal renal function ([1]; 60 ≤ CLcr < 90 mL/min vs CLcr ≥ 90 mL/min): 10% | apparent clearance of a typical PV patient ([1]; CLcr = 78.5 mL/min): 20.0 L/h | increase in typical AUC with severe renal impairment vs normal renal function ([1]; MF patients, severe renal impairment, N = 3): 59% | typical value of CL/F, base model ([1]; base model): 13.6 L/h | typical value of V2/F, base model ([1]; base model): 340 L | magnitude of changes in V2/F by dose ([1]; covariate analysis): less than 30% | CL/F higher in PV patients compared to MF or ET patients ([1]; final model): 54% | CL/F of a typical MF patient ([1]; final model): 13.0 L/h | TVCL/F, parameter estimate ([1]; final model): 13.0 L/h | TVKa, parameter estimate ([1]; final model): 1.57 h⁻¹ | TVQ/F, parameter estimate ([1]; final model): 45.2 L/h | TVV2/F, parameter estimate ([1]; final model): 311 L | TVV3/F, parameter estimate ([1]; final model): 1460 L | V2/F higher in PV patients compared to MF or ET patients ([1]; final model): 87% | fold higher CL/F in PV patients compared to MF or ET patients ([1]; final model): 1.54 fold | fold higher V2/F in PV patients compared to MF or ET patients ([1]; final model): 1.87 fold | TVCL/F, bootstrap median (95% CI) ([1]; final model, 484 of 500 bootstrap replicates): 13.1 (12.4 to 13.9) L/h | TVALAG1, parameter estimate ([1]; final model, absorption lag time): 0.265 h | COVCL/F-V2/F, bootstrap median (95% CI) ([1]; final model, bootstrap): 0.193 (0.145 to 0.249) | PV on V2/F, bootstrap median (95% CI) ([1]; final model, bootstrap): 1.85 (1.40 to 2.42) | TVALAG1, bootstrap median (95% CI) ([1]; final model, bootstrap): 0.265 (0.264 to 0.321) h | TVKa, bootstrap median (95% CI) ([1]; final model, bootstrap): 1.64 (1.34 to 2.05) h^−1 | TVQ/F, bootstrap median (95% CI) ([1]; final model, bootstrap): 45.2 (38.5 to 52.9) L/h | TVV2/F, bootstrap median (95% CI) ([1]; final model, bootstrap): 313 (282 to 343) L | TVV3/F, bootstrap median (95% CI) ([1]; final model, bootstrap): 1470 (1190 to 1790) L | Weight on V2/F, bootstrap median (95% CI) ([1]; final model, bootstrap): 0.733 (0.383 to 1.10) | σ^2 (Log additive), bootstrap median (95% CI) ([1]; final model, bootstrap): 0.194 (0.159 to 0.264) | ω^2, Ka, bootstrap median (95% CI) ([1]; final model, bootstrap): 1.09 (0.728 to 1.54) | ω^2, V2/F, bootstrap median (95% CI) ([1]; final model, bootstrap): 0.371 (0.247 to 0.510) | COVCL/F-V2/F, parameter estimate ([1]; final model, covariance): 0.197 | PV on V2/F, parameter estimate ([1]; final model, covariate factor if PV): 1.87 | Weight on V2/F, parameter estimate ([1]; final model, exponent of (Weight/70.1)): 0.727 | ω^2, Ka, parameter estimate [1, 6]: 1.07 | ω^2, V2/F, parameter estimate [1, 6]: 0.383 | σ^2 (Log additive), parameter estimate ([1]; final model, residual variability): 0.201
SMILES: Cc1cnc(Nc2ccc(OCCN3CCCC3)cc2)nc1Nc1cccc(S(=O)(=O)NC(C)(C)C)c1 [fedratinib, Fedratinib]
magnitude of changes in V2/F by body weight ([1]; body weight 39.5 to 135 kg): less than 30% | linearity of PK with dose ([1]; doses of 200 mg and above): linear, time-invariant PK; also recorded: increased linearly | effect of age, body weight, sex, race and liver function on exposure/PK ([1]; population PK covariate analysis): No clinically meaningful effect | selectivity for JAK2 over JAK1, JAK3 and TYK2 (wild-type JAK2): selective for JAK2 over JAK1, JAK3 and TYK2 | IC50 (wild-type JAK2; wild-type JAK2): 3 nM | IC50 [2]: 3 nM | IC50 (FLT3): 15 nM | inhibition of JAK2 V617F-driven aberrant human PV progenitor erythroid differentiation [3]: significantly inhibits | dose proportionality of exposure ([4]; 300–500 mg at steady state): approximately dose-proportional | mean accumulation ratio ([4]; 300–500 mg once daily, steady state): 2.95–3.88 | time to peak plasma concentration ([4]; human, in vivo, po): 0.5 to 4 h | dose proportionality of exposure ([4]; human, in vivo): greater than dose-proportional increase | time to steady state of plasma levels ([4]; once daily dosing): ≤ 15 days | CL/F of healthy subjects [5]: 20.7 to 46.0 L/h | dose proportionality of exposure [5]: greater than dose-proportional increase | mean terminal half-life [5]: 62 to 78 h
